# Measurements as given in publication PMC9227536, “Prediction of Pharmacokinetics of IDP-73152 in Humans Using Physiologically-Based Pharmacokinetics” (Pharmaceutics, 2022).
# Like-named read-outs stand apart in the source and are kept apart here.
# Experiments:
# [1] = set-up: method as in PMID 31440032; details: cited from earlier work; for Observed AUCinf / Observed Cmax: humans, fasting
# [2] = Physicochemical properties (Table S3)
# [3] = Blood stability in rat blood (CLblood); format: in vitro ADME
# Description: In contrast, however, the compound was unstable in the rat blood and plasma. […] The blood containing IDP-73152 was incubated at 37 °C in a water bath, and aliquots (50 μL) were collected from the mixture at 0, 10, 30, 60, 120, and 240 min. The samples were centrifuged for 5 min at 10,000× g/4 °C, and the plasma was collected/stored at -80 °C until analysis. For the estimation of the clearance in the blood (CLblood), in rats, the disappearance of IDP-73152 in the blood was assumed to be mediated by first-order kinetics. […]×total volume of the blood×BP ) to calculate CLblood.
# [4] = Metabolic stability in liver microsomes, rat; format: in vitro ADME
# Description: In this study, the metabolic stability of IDP-73152 in microsomes from mice, rats, dogs, and humans, as well as rat hepatocytes, was determined. For a microsomal incubation study, the incubation mixtures, containing mouse, rat, dog, or human liver microsomes at a protein concentration of 0.5 mg/mL, 3.3 mM MgCl2, and 1.3 mM NADPH, in a 100 mM potassium phosphate buffer (pH 7.4), were preincubated for 3 min at 37 °C. In parallel, a control incubation mixture (i.e., identical composition to that of the incubation mixture without NADPH) was also prepared for comparison. The reaction was initiated by the addition of a 10 × solution of IDP-73152 (final concentration in mixtures of 1 μM) to the incubation mixtures or the control incubation mixtures. The mixtures were incubated in a shaking water bath (37 °C, 90 rpm). Aliquots (30 μL) were collected at 0, 15, 30, and 45 min from the mixture and the reaction was terminated by the addition of a 4-fold volume of ice-cold acetonitrile to the sample. The mixture was then vortexed for 5 min and centrifuged for 10 min at 10,000× g. The supernatant was collected and stored at -80 °C until the analysis. For the hepatocyte incubation study, rat hepatocytes were freshly prepared using the two-step collagenase perfusion method with slight modifications. After the isolation, cell viability during the preparation process was first determined by a trypan blue exclusion assay prior to the stability study. The preparation was considered adequate for subsequent studies if the viability was greater than 80%. When appropriate, the hepatocytes were resuspended in Williams' media E containing 10% fetal bovine serum, 1% penicillin-streptomycin, and 0.01% insulin-transferrin-selenium (i.e., 10 mg/mL insulin, 5.5 mg/mL transferrin, and 5 mg/mL selenium) at pH 7.4. The reaction was carried out with the hepatocyte suspension prepared at 1 × 10^6 cells/mL (0.5 mL) and initiated by the addition of equal volume of IDP-73152 solution (i.e., final concentration of the compound at 1 μM in 0.5 × 10^6 cells/mL of hepatocytes) to the hepatocyte suspension. […] Assuming first-order disappearance kinetics, the slope k of the logarithmically transformed IDP-73152 concentration in the sample versus time plot was determined by the linear regression analysis of the data. The total intrinsic clearance (CLint,mic, μL/min/mg protein for microsomal incubation study and CLint,hep, μL/min/million cells for hepatocytes incubation study) was then calculated using the following equations:(4) CLint, mic=k×Volume of incubation medium (μL)/Protein in incubation medium (mg) (5) CLint,hep=k×Volume of incubation (μL)/Number of cells in incubation (×10^6) The unbound intrinsic clearance, with respect to the whole liver ([…]), was then estimated for the two cases. […]
# hepatic CYP3A = assay: Preliminary studies of metabolic pathway; format: in vitro ADME
# the bacterial strains = assay: In vitro minimum inhibitory concentration, preliminary screening; format: cell-based; details: preliminary screening study, against the bacterial strains
structure (smiles),measurement,setting,value
CC(C)(C)[C@H](NC(=O)[C@H](CC1CCCC1)CN(O)C=O)C(=O)N1CCC(NCc2cc(F)c(F)cc2F)CC1 [IDP-73152],adverse effects,"[1]; human subjects, single oral dose of 40–1280 mg",without clinically significant adverse effects
same,Observed AUCinf,[1]; single oral 640 mg,43400 ± 4470 ng·h/mL
same,Observed Cmax,[1]; single oral 640 mg,8920 ± 1170 ng/mL
same,Observed AUCinf,[1]; single oral 1280 mg,77400 ± 15400 ng·h/mL
same,Observed Cmax,[1]; single oral 1280 mg,13200 ± 2500 ng/mL
same,logP,[2],-0.52
same,pKa,[2],8.8
same,CLblood,"[3]; fresh whole blood from rats, 1 μM, 37 °C",0.717 ± 0.383 mL/min/kg
same,contribution of CLblood to the CLp,[3]; rats,2.15%
same,CLhep predicted at 1 μM,"[4]; rat, liver microsomes, pH 7.4, rats, read-out: CLh calculated from the CLint,mic (converted)",28.2 mL/min/kg
same,microsomal CLint at 1 μM,"[4]; rat, pH 7.4, rats liver microsomes 0.5 mg/mL, 1 μM, read-out: CLint,mic",72 ± 2.6 µL/min/mg
same,hepatic ER (extraction ratio),"[4]; rats, from microsomal clearance, well-stirred model",0.222 ± 0.006
same,"CLu,int,H","[4]; rats, scaled up to the whole liver from microsomes",7.46 ± 0.27 L/h
same,primary metabolic pathway,hepatic CYP3A,mediated by hepatic CYP3A
same,in vitro minimum inhibitory concentration values,the bacterial strains,"comparable to, or less than, those of linezolid and vancomycin"
